This assay has as its target BTK (Homo sapiens (Human), UniProt Q06187). Put plainly: Btk kinase assay (HTRF). The format is biochemical. The conditions noted are these: [ATP]=80 μM, BTK=3.4 nM; read-out: BTK Inhibition. The procedure, abridged:
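HTRF kinase read-out (665/615 nm ratio, excitation 330 nm) after EDTA quench and 1 h detection incubation. Reaction: 3.4 nM BTK, ATP 80 μM, peptide substrate 1 μM, compound, HEPES pH 7.0 buffer, 1 h; IC50 derived using uninhibited and enzyme-free controls.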
In general terms: TR-FRET usually uses a lanthanide donor and a delayed reading to cut background.
Sequence of BTK (Q06187 whole entry, species assumed): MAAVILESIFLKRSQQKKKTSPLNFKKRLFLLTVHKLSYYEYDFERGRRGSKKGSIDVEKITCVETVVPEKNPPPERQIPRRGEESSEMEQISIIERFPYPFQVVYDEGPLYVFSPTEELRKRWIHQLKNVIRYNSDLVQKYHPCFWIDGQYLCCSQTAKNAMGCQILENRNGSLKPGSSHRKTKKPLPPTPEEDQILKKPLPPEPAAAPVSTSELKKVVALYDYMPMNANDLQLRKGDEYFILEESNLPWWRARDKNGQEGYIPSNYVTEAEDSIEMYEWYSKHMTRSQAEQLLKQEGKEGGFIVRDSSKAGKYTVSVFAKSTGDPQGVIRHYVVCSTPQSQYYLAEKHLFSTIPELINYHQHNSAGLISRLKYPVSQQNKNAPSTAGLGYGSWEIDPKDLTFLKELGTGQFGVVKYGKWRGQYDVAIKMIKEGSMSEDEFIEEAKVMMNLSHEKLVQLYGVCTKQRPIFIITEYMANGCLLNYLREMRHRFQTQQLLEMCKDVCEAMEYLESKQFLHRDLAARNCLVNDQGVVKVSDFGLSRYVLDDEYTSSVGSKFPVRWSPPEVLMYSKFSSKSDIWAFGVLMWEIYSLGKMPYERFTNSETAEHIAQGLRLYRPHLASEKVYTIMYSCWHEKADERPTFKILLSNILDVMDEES
Turning to `C=CC(=O)N1CC[C@@H](n2c(=O)n(-c3ccc(Oc4ccc(F)cc4)cc3)c3cnccc32)C1` [Example 81, (R)-1-(1-acryloylpyrrolidin-3-yl)-3-(4-(4-fluorophenoxy)phenyl)-1H-imidazo[4,5-c]pyridin-2(3H)-one], the IC50 was in the range of 100 to 1000 nM.
For `C=CC(=O)Nc1cccc(-n2c(=O)n(-c3ccc(NC(=O)c4ccccc4C(F)(F)F)cc3)c3cnccc32)c1` [Example 262, N-(4-(1-(3-acrylamidophenyl)-2-oxo-1,2-dihydro-3H-imidazo[4,5-c]pyridin-3-yl)phenyl)-2-(trifluoromethyl)benzamide], the IC50 fell in the range of 100 to 1000 nM.
With `C=CC(=O)Nc1cccc(-n2c(=O)n(-c3cccc(Oc4cccc(OC)c4)c3)c3cnccc32)c1` [Example 87, N-(3-(3-(3-(3-methoxyphenoxy)phenyl)-2-oxo-2,3-dihydro-1H-imidazo[4,5-c]pyridin-1-yl)phenyl)acrylamide], the IC50 was in the range of 10 to 100 nM.
As for `C=CC(=O)N1CC[C@@H](n2c(=O)n(-c3ccc(Oc4cccc(OC)c4Cl)cc3)c3cnccc32)C1` [Example 135, (R)-1-(1-acryloylpyrrolidin-3-yl)-3-(4-(2-chloro-3-methoxyphenoxy)phenyl)-1H-imidazo[4,5-c]pyridin-2(3H)-one], the IC50 is 10 to 100 nM.
With `C=CC(=O)Nc1cccc(-n2c(=O)n(-c3ccc(NC(=O)c4cccc(OC)c4)cc3)c3cnccc32)c1` [Example 266, N-(4-(1-(3-acrylamidophenyl)-2-oxo-1H-imidazo[4,5-c]pyridin-3(2H)-yl)phenyl)-3-methoxybenzamide] the figure was 100 to 1000 nM.
Consider `C=CC(=O)Nc1cccc(-n2c(=O)n(-c3ccc(Oc4ccc(F)c(F)c4)cc3)c3cnccc32)c1` [Example 126, N-(3-(3-(4-(3,4-difluorophenoxy)phenyl)-2-oxo-2,3-dihydro-1H-imidazo[4,5-c]pyridin-1-yl)phenyl)acrylamide], for which the IC50 was 100 to 1000 nM.
On to `C=CC(=O)N1CC[C@@H](n2c(=O)n(-c3ccc(Oc4ccccc4)cc3)c3c(N)cccc32)C1` [Example 190, (R)-1-(1-acryloylpyrrolidin-3-yl)-4-amino-3-(4-phenoxyphenyl)-1H-benzo[d]imidazol-2(3H)-one], for which the IC50 fell in the range of 100 to 1000 nM.
In the case of `C=CC(=O)N1CC[C@@H](n2c(=O)n(-c3ccc(Oc4ccc(C(F)(F)F)cc4)cc3)c3cnccc32)C1` [Example 36, (R)-1-(1-acryloylpyrrolidin-3-yl)-3-(4-(4-(trifluoromethyl)phenoxy)phenyl)-1H-imidazo[4,5-c]pyridin-2(3H)-one], the IC50 lay in the range of 100 to 1000 nM.
As to `C=CC(=O)Nc1cccc(-n2c(=O)n(-c3ccc(OCc4ccccc4F)c(F)c3)c3cnccc32)c1` [Example 217, N-(3-(3-(3-fluoro-4-((2-fluorobenzyl)oxy)phenyl)-2-oxo-2,3-dihydro-1H-imidazo[4,5-c]pyridin-1-yl)phenyl)acrylamide], the IC50 was in the range of 100 to 1000 nM.
Consider `C=CC(=O)N1CC[C@@H](n2c(=O)n(-c3ccc(Oc4ccc(Cl)c(Cl)c4)c(Cl)c3)c3cnccc32)C1` [Example 44, (R)-1-(1-acryloylpyrrolidin-3-yl)-3-(3-chloro-4-(3,4-dichlorophenoxy)phenyl)-1H-imidazo[4,5-c]pyridin-2(3H)-one], for which the IC50 fell in the range of 10 to 100 nM.
Take `O=C(O)C(=O)N1CCCC(n2c(=O)n(-c3ccc(Oc4ccccc4)cc3)c3cnccc32)C1` (stereo not drawn) [Example 192, 2-oxo-2-(3-(2-oxo-3-(4-phenoxyphenyl)-2,3-dihydro-1H-imidazo[4,5-c]pyridin-1-yl)piperidin-1-yl)acetic acid]: the IC50 lay within 1000 to 10000 nM.
With `C=CC(=O)N1CC[C@@H](n2c(=O)n(-c3ccc(Oc4cccc(F)c4Cl)cc3)c3cnccc32)C1` [Example 102, (R)-1-(1-acryloylpyrrolidin-3-yl)-3-(4-(2-chloro-3-fluorophenoxy)phenyl)-1,3-dihydro-2H-imidazo[4,5-c]pyridin-2-one] the figure was 10 to 100 nM.

Values taken from patent US10358446B2, “Bruton's tyrosine kinase inhibitors” (Zibo Biopolar Changsheng Pharmaceutical Co. Ltd., priority 2015, dated 2019).
